This assay addresses T1, human Kv3.1 channels (hKv3.1) (Homo sapiens, UniProt P48547).
T1 sequence (P48547 1-501 limits assumed): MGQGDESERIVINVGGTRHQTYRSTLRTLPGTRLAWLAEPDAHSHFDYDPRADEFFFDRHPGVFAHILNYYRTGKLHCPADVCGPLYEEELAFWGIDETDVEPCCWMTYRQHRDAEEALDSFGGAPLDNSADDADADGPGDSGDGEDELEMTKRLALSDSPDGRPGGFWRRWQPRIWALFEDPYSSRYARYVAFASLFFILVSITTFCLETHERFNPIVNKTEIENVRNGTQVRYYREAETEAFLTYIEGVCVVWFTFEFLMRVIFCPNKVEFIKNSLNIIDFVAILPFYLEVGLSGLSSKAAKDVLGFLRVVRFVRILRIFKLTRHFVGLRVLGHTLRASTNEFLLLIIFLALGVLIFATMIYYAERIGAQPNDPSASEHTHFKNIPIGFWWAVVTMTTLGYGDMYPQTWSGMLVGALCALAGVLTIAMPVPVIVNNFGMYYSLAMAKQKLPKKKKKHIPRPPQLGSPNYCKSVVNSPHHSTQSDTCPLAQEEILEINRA
Nature of the assay: Measurement of Kv3 channel modulation: Kv3.1 assay (IonWorks Quattro whole-cell electrophysiology). Type of assay: cell-based. The conditions noted are these: for Kv3.1 max R %: normalised to maximum effect of reference compound (50 microM). The procedure:
The ability of the compounds of the invention to modulate the voltage-gated potassium channel subtypes Kv3.4/Kv3.3/Kv3.2/Kv3.1 may be determined using the following assay. Analogous methods may be used to investigate the ability of the compounds of the invention to modulate other channel subtypes.
Human embryonic kidney (HEK)-hKv3.1 cell line is generated by transfecting HEK-293 cells with an expression vector with human Kv3.1 (NM_004976.4). Cells are cultured with MEM supplemented with 10% Heat-Inactivated FBS, 2 mM L-glutamine, 1% Penicillin-Streptomycin, and 0.6 mg/ml of Geneticin (G418). HEK-hKv3.1b cells were amplified in T175 cm2 flask at 37° C. with 5% CO2, using MEM amplification medium, containing the G418 selection antibiotic (0.6 mg/ml). Cells were detached every 3-4 days, using DPBS to wash twice the flask, then TrypLE to dislodge the cells, and re-plated at a density of 2-4×10^6 cells/flask.
The day of the experiment, cells are removed from the incubator and the culture medium removed. Cells are washed with 5 ml of Dulbecco's PBS (DPBS) calcium and magnesium free and detached by the addition of 3 ml Versene (Invitrogen, Italy) followed by a brief incubation at 37° C. for 5 minutes. The flask is tapped to dislodge cells and 10 ml of DPBS containing calcium and magnesium is added to prepare a cell suspension. The cell suspension is then placed into a 15 ml centrifuge tube and centrifuged for 2 min at 1200 rpm. After centrifugation, the supernatant is removed and the cell pellet re-suspended in 4 ml of DPBS containing calcium and magnesium using a 5 ml pipette to break up the pellet. Cell suspension volume is then corrected to give a cell concentration for the assay of approximately 3 million cells per ml.
Experiments are conducted at r.t. using IonWorks Quattro™ planar array electrophysiology technology (Molecular Devices Corp.) with PatchPlate™ PPC. Stimulation protocols and data acquisition are carried out using a microcomputer (Dell Pentium 4). Planar electrode hole resistances (Rp) are determined by applying a 10 mV voltage step across each well. These measurements are performed before cell addition. After cell addition and seal formation, a seal test is performed by applying a voltage step from −80 mV to −70 mV for 160 ms. Following this, amphotericin-B solution is added to the intracellular face of the electrode to achieve intracellular access. Cells are held at −70 mV. Leak subtraction is conducted in all experiments by applying 50 ms hyperpolarizing (10 mV) prepulses to evoke leak currents followed by a 20 ms period at the holding potential before test pulses.
For hKv3.2 and hKv3.1, assays from the holding potential of −70 mV, a first test pulse at −15 mV was applied for 100 ms and after 100 ms at −70 mV a second pulse at +40 mV was applied for 50 ms. Cells were then maintained for 100 ms at −100 mV and another pulse from […] to +40 mV (duration 50 ms) was applied to clamp later the voltage at −40 mV during 200 ms
The intracellular solution contains the following (in mM): K-gluconate 100, KCl 54, MgCl2 3.2, HEPES 5, adjusted to pH 7.3 with KOH. Amphotericin-B solution is prepared as 50 mg/ml stock solution in DMSO and diluted to a final working concentration of 0.1 mg/ml in intracellular solution.
Compounds of use in the invention (or reference compounds such as N-cyclohexyl-N-[(7,8-dimethyl-2-oxo-1,2-dihydro-3-quinolinyl)methyl]-N′-phenylurea) are dissolved in dimethylsulfoxide (DMSO) at a stock concentration of 10 mM. […] Each dilution (1 μL) is transferred to another compound plate and external solution containing 0.05% pluronic acid (66 μL) is added. 3.5 μL from each plate containing a compound of the invention is added and incubated with the cells during the IonWorks Quattro™ experiment. The final assay dilution is 200 and the final compound concentrations are in the range 50 μM to 50 nM.
Background: In patch-clamp work, channel activity is measured electrically.

The mark [1] stands for this setting: Table 2, Example compounds, rounded to one decimal place, some compounds with two data sets (n given in cell), read-out: Kv3.1 pEC50 (converted).
The mark [2] stands for this setting: Table 3, Reference Examples and corresponding Examples, rounded to one decimal place, read-out: Kv3.1 pEC50 (converted).

The structures appear in SMILES notation. “And” between values parts separate entries of the source, which are not always exact repeats. Equal entries are not always repeated. Where two headings read alike, the source gives them in different places.

Consider `Cc1ccc(Oc2ccc(-n3c(=O)[nH]c4cccnc43)cn2)c2c1OCC21CC1` [Example 1, 3-[6-(7-methylspiro[2H-benzofuran-3,1′-cyclopropane]-4-yl)oxy-3-pyridyl]-1H-imidazo[4,5-b]pyridin-2-one], for which, where the note is “Table 2, Example compounds”, the “Kv3.1 max R %” value worked out at 148%. For the same compound, the EC50 was 200 nM under setting [1] and 200 nM under setting [2].

`Cc1ccc(Oc2ccc(-n3c(=O)[nH]c4c(C)ccnc43)cn2)c2c1OCC21CC1` [Example 2, 7-methyl-3-[6-(7-methylspiro[2H-benzofuran-3,1′-cyclopropane]-4-yl)oxy-3-pyridyl]-1H-imidazo[4,5-b]pyridin-2-one]: the “Kv3.1 max R %” value (Table 2, Example compounds) stood at 83%. In addition, the EC50 under setting [1] is 158 nM.

Compound `O=c1[nH]c2cccnc2n1-c1ccc(Oc2cccc3c2C2(CC2)CO3)nc1` [Example 3, 3-(6-spiro[2H-benzofuran-3,1′-cyclopropane]-4-yloxy-3-pyridyl)-1H-imidazo[4,5-b]pyridin-2-one] had an EC50 (Kv3.1 pEC50, Table 2, Example compounds, rounded to one decimal place, some compounds with two data sets (n given in cell)) of 100 nM. Further, under “Table 2, Example compounds”, the “Kv3.1 max R %” value worked out at 197%.

Regarding `Cc1ccnc2c1[nH]c(=O)n2-c1ccc(Oc2cccc3c2C2(CC2)CO3)nc1` [Example 5, 7-methyl-3-(6-spiro[2H-benzofuran-3,1′-cyclopropane]-4-yloxy-3-pyridyl)-1H-imidazo[4,5-b]pyridin-2-one], the “Kv3.1 max R %” value (Table 2, Example compounds) is recorded as 132%. Further, the EC50 under setting [1] is 316 nM.

For `O=c1[nH]c2cccnc2n1-c1ccc(Oc2cccc3c2C2(CC2)CO3)cn1` [Example 6, 3-(5-spiro[2H-benzofuran-3,1′-cyclopropane]-4-yloxy-2-pyridyl)-1H-imidazo[4,5-b]pyridin-2-one], the “Kv3.1 max R %” value (Table 2, Example compounds) worked out at 221%. The EC50 under setting [1] was 2000 nM.

Take `O=c1[nH]c2cccnc2n1-c1ccc(Oc2cccc(OC(F)(F)F)c2)nc1` [Example 7, 3-[6-[3-(trifluoromethoxy)phenoxy]-3-pyridyl]-1H-imidazo[4,5-b]pyridin-2-one]: the “Kv3.1 max R %” value (Table 2, Example compounds) was 89% and 96%. Further, the EC50 is, setting by setting: under setting [1], 501 nM and 398 nM; under setting [2], 398 nM; (Table 5, Example compounds, read-out: Kv3.1 pEC50 (converted)) 398 nM.

With `CC1(C)COc2cccc(Oc3cnc(-n4c(=O)[nH]c5cccnc54)cn3)c21` [Example 9, 3-[5-[(3,3-dimethyl-2H-benzofuran-4-yl)oxy]pyrazin-2-yl]-1H-imidazo[4,5-b]pyridin-2-one], for the setting “Table 2, Example compounds”, the “Kv3.1 max R %” value came to 147%. Further, the EC50 under setting [1] was 1260 nM.

Turning to `O=c1[nH]c2cccnc2n1-c1cnc(Oc2cccc(OC(F)(F)F)c2)cn1` [Example 10, 3-[5-[3-(trifluoromethoxy)phenoxy]pyrazin-2-yl]-1H-imidazo[4,5-b]pyridin-2-one], for the setting “Table 2, Example compounds”, the “Kv3.1 max R %” value is 94%. Besides, the EC50 under setting [1] was 2000 nM.

For the compound `Cc1ccc(Oc2cnc(-n3c(=O)[nH]c4cccnc43)cn2)c2c1OCC21CC1` [Example 11, 3-[5-(7-methylspiro[2H-benzofuran-3,1′-cyclopropane]-4-yl)oxypyrazin-2-yl]-1H-imidazo[4,5-b]pyridin-2-one], the “Kv3.1 max R %” value (Table 2, Example compounds) is 205%. Besides, under setting [1], the EC50 was 316 nM.

Take `CC1(C)COc2cccc(Oc3ccc(-n4c(=O)[nH]c5cccnc54)cn3)c21` [Example 12, 3-[6-[(3,3-dimethyl-2H-benzofuran-4-yl)oxy]-3-pyridyl]-1H-imidazo[4,5-b]pyridin-2-one]: under “Table 2, Example compounds”, the “Kv3.1 max R %” value is reported as 164%. The EC50 under setting [1] was 316 nM.

For `N#Cc1ccc(Oc2ccc(-n3c(=O)[nH]c4cccnc43)cn2)cc1OC(F)(F)F` [Example 14, 4-[[5-(2-oxo-1H-imidazo[4,5-b]pyridin-3-yl)-2-pyridyl]oxy]-2-(trifluoromethoxy)benzonitrile], the “Kv3.1 max R %” value (Table 2, Example compounds) amounted to 124%. The EC50 under setting [1] was 1000 nM.

On to `Cc1ccnc2c1[nH]c(=O)n2-c1cnc(Oc2cccc3c2C2(CC2)CO3)nc1` [Example 15, 7-methyl-3-(2-spiro[2H-benzofuran-3,1′-cyclopropane]-4-yloxypyrimidin-5-yl)-1H-imidazo[4,5-b]pyridin-2-one], for which the “Kv3.1 max R %” value (Table 2, Example compounds) is 201%. Also, under setting [1], the EC50 was 1000 nM.

Consider `COc1cccc(Oc2ncc(-n3c(=O)[nH]c4cccnc43)cn2)c1` [Example 16, 3-[2-(3-methoxyphenoxy)pyrimidin-5-yl]-1H-imidazo[4,5-b]pyridin-2-one], for which the “Kv3.1 max R %” value (Table 2, Example compounds) stood at 124%. Also, the EC50 under setting [1] was 3160 nM.

With `Cn1cc2[nH]c(=O)n(-c3ccc(Oc4cccc5c4C4(CC4)CO5)nc3)c2n1` [Example 18, 2-methyl-6-(6-spiro[2H-benzofuran-3,1′-cyclopropane]-4-yloxy-3-pyridyl)-4H-imidazo[4,5-c]pyrazol-5-one], where the note is “Table 2, Example compounds”, the “Kv3.1 max R %” value was determined as 148%. Moreover, the EC50 under setting [1] was 251 nM.

As to `Cc1ccc(Oc2ccc(-n3c(=O)[nH]c4cn(C)nc43)cn2)c2c1OCC21CC1` [Example 19, 2-methyl-6-[6-(7-methylspiro[2Hbenzofuran-3,1′-cyclopropane]-4-yl)oxy-3-pyridyl]-4H-imidazo[4,5-c]pyrazol-5-one], the “Kv3.1 max R %” value (Table 2, Example compounds) is on record as 99%. Also, the EC50 under setting [1] was 316 nM.

On to `Cn1cc2[nH]c(=O)n(-c3ccc(Oc4cccc5c4C(C)(C)CO5)nc3)c2n1` [Example 20, 6-[6-[(3,3-dimethyl-2H-benzofuran-4-yl)oxy]-3-pyridyl]-2-methyl-4H-imidazo[4,5-c]pyrazol-5-one], for which the “Kv3.1 max R %” value (Table 2, Example compounds) is 145% and 155%. Moreover, the EC50 under setting [1] is 794 nM and 631 nM.

Regarding `Cn1cc2[nH]c(=O)n(-c3cnc(Oc4cccc5c4C4(CC4)CO5)cn3)c2n1` [Example 21, 2-methyl-6-(5-spiro[2H-benzofuran-3,1′-cyclopropane]-4-yloxypyrazin-2-yl)-4H-imidazo[4,5-c]pyrazol-5-one], the “Kv3.1 max R %” value (Table 2, Example compounds) was found to be 96%. Moreover, under setting [1], the EC50 is 10000 nM.

For `Cn1cc2[nH]c(=O)n(-c3cnc(Oc4cccc5c4C4(CC4)CO5)nc3)c2n1` [Example 22, 2-methyl-6-(2-spiro[2H-benzofuran-3,1′-cyclopropane]-4-yloxypyrimidin-5-yl)-4H-imidazo[4,5-c]pyrazol-5-one], the “Kv3.1 max R %” value (Table 2, Example compounds) worked out at 166%. In addition, the EC50 under setting [1] was 501 nM.

`CC1(C)COc2cccc(Oc3ncc(-n4c(=O)[nH]c5ccncc54)cn3)c21` [Example 23, 3-[2-[(3,3-dimethyl-2H-benzofuran-4-yl)oxy]pyrimidin-5-yl]-1H-imidazo[4,5-c]pyridin-2-one]: under “Table 2, Example compounds”, the “Kv3.1 max R %” value is 101% and 107%. Further, the EC50 under setting [1] is 10000 nM and 7940 nM; the EC50 under setting [2] is 7940 nM.

(Values after patent US20240327406A1, “POTASSIUM CHANNEL MODULATORS” (Autifony Therapeutics Limited, priority 2021, published 2024).)
